This passage reports viability, T/C and IC50 results from PubChem BioAssay AID1963968 (Molecular Pharmacology Branch, DTP, NCI, 2024).

The assay concerns 945468-187-T-J3-PDC spheroids with HUVEC/MSC, viability. As to the kind of experiment: Anticancer human tumor 945468-187-T-J3-PDC patient-derived rectal carcinoma cell line growth inhibition [PI3K]. Particulars: for viability, T/C: stronger effect = lower value. An excerpt:
Combinatorial screen of targeted agents with the PI3K inhibitors inavolisib, alpelisib, duvelisib, and copanlisib in multi-cell type tumor spheroids
A high-throughput screen of multi-cell type tumor spheroids was designed to identify active combinations of targeted small molecules and PI3K pathway inhibitors. Complex spheroids include a stromal component modeled by human endothelial cells (HUVEC) and fibroblasts modeled by human mesenchymal stem cells (MSCs). The concentration ranges selected for each drug and investigational agent were based upon clinically achievable concentrations if the clinical Cmax of the agent was known.
Compounds. The drugs and investigational agents: inavolisib (NSC800729), alpelisib (NSC765974), duvelisib (NSC772469), copanlisib (NSC816437), ipatasertib (NSC767898), afuresertib (NSC778305), talazoparib (NSC767125), sapanisertib (NSC764658), selumetinib (NSC741078), tovorafenib (DAY101, NSC766906), vemurafenib (NSC761431), ravoxertinib (NSC781343), sotorasib (NSC818433), MRTX1133 (NSC 836407), abemaciclib (NSC 768073), palbociclib (NSC758247), venetoclax (NSC 766270), SY5609 (NSC837396), enzalutamide (NSC755605), and darolutamide (NSC825331), were obtained from the National Cancer Institute (NCI) Developmental Therapeutics Program Chemical Repository. The FDA-approved anticancer drug set is available from the NCI Developmental Therapeutics Program. […] The stock solutions were prepared in dimethyl sulfoxide (DMSO, Sigma-Aldrich, St. Louis, MO, cat. D2650) at 800-fold the tested concentration and stored at -70 degrees C prior to their use. All drugs and investigational agents were tested over a range starting from a high concentration at or near the clinical Cmax and decreasing in half-log increments. If the clinical Cmax for an agent had not been determined, the highest concentration tested was 10 microM.
Cell Culture. All cells were maintained in an incubator at 37 degrees C and 5% CO2 with 95% humidity. The PDC lines were cultured according to standard operating procedures established by the NCI PDMR (https://pdmr.cancer.gov/sops/default.htm). All PDCs were thawed and cultured in Matrigel-coated flasks prepared with a working solution of 1X Ham's F-12 nutrient mix, without supplementation (Invitrogen, Waltham, MA, cat. 11765054), 100 U/mL penicillin-streptomycin (Invitrogen, cat. 15140122), and 2.5% Matrigel (Corning Inc., Corning, NY, cat. 354248) for the first three passages. The 354836-022-R-J1-PDC, 475296-252-R-J1-PDC, and 997726-040-R-J2-PDC lines were cultured in 6A media, which includes advanced DMEM/F-12 (Thermo Fisher Scientific, cat. 12634028), 10 mM HEPES (Thermo Fisher Scientific, cat. 15630080), 1X GlutaMAX supplement (Thermo Fisher Scientific, cat. 35050061), 0.1 mg/mL primocin (InvivoGen, San Diego, CA, cat. ant-pm-2), 10% defined fetal bovine serum, heat inactivated (HyClone Laboratories Inc., Logan, UT, cat. SH30070.03HI), 50% L-WRN conditioned media (ATCC, cat. CRL-3276), 1.25 mM N-Acetyl-L-cysteine (Sigma-Aldrich, cat. A9165), 10 mM nicotinamide (Sigma-Aldrich, cat. N0636), 1X B-27 supplement (Thermo Fisher Scientific, cat. 17504044), 1X N-2 supplement (Thermo Fisher Scientific, cat. 17502048), and 10 microM Y-27632 dihydrochloride (Tocris Bioscience, Bristol, United Kingdom, cat. 1254). The 624824-186-R-J2-PDC line was cultured in 6C/Colon 1B media, which includes all 6A media components plus 50 ng/mL human EGF recombinant protein (Thermo Fisher Scientific, cat. PHG0311). […]

Molecules are shown by their SMILES. Values joined by “and” are separate entries in the source; they are usually repeats but may differ in a detail not shown here. Equal values may be shown once.
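Also: spheroids exposed to agents for 7 days before viability read.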
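For viability, T/C in this document: 100% = DMSO vehicle control viability.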

Take `C#Cc1c(F)ccc2cc(O)cc(-c3ncc4c(N5CC6CCC(C5)N6)nc(OCC56CCCN5CC(F)C6)nc4c3F)c12` (centres undefined): the viability, T/C runs as follows: (compound 0.0316 µM) 96.4% [middle of 4 runs]; (compound 0.1 µM) 95.8% [middle of 4 runs]; (compound 0.316 µM) 98.2% [middle of 4 runs]; (compound 1 µM) 114% (2×) and 95.9% and 89.8%; (compound 3.16 µM) 125% [middle of 4 runs]; (compound 10 µM) 113% [middle of 4 runs]. Besides, where the note is “curve of compound”, the IC50 was above 10 µM.
In the case of `C=CC(=O)N1CCN(c2nc(=O)n(-c3c(C)ccnc3C(C)C)c3nc(-c4c(O)cccc4F)c(F)cc23)C(C)C1` (centres undefined), the viability, T/C is 99.2% and 94% and 95.5% (compound 0.0316 µM); 97.8% and 105% and 93.8% (compound 0.1 µM); 103% and 94.5% and 98.7% (compound 0.316 µM); 85.6% and 92.5% and 98.2% (compound 1 µM); 88.8% and 100% and 113% (compound 3.16 µM); 98.1% and 103% and 116% (compound 10 µM). Further, for the setting “curve of compound”, the IC50 was above 10 µM.
As to `CC1(C)CCC(Nc2ncc(C(F)(F)F)c(-c3c[nH]c4c(P(C)(C)=O)c(C#N)ccc34)n2)CN1` (centres undefined), the viability, T/C reads like this: (compound 0.0316 µM) 79.6% [middle of 4 runs]; (compound 10 µM) 12.7% [middle of 4 runs]. Also, the half-inhibitory concentration (IC50) (curve of compound) is 5.16 µM [middle of 4 runs].
With `Cn1ncc(Cl)c1-c1cc(C(=O)NC(CN)Cc2cccc(F)c2)sc1Cl` (centres undefined), the viability, T/C (compound 0.0316 µM) is 100% (2×) and 98.4% and 89.2%; the viability, T/C (compound 0.1 µM) was 98.1% [middle of 4 runs]; the viability, T/C (compound 0.316 µM) was 97.4% [middle of 4 runs]; the viability, T/C (compound 3.16 µM) was 59.7% [middle of 4 runs]; the viability, T/C (compound 10 µM) is 50.4% [middle of 4 runs].
`Cn1cnc2c(F)c(Nc3ccc(Br)cc3Cl)c(C(=O)NOCCO)cc21` + CC(Nc1ccc2c(c1)OCCn1cc(N3C(=O)OCC3C(F)F)nc1-2)C(N)=O: the IC50 is, setting by setting: (curve of first compound, second compound 0.00316 µM) above 3 µM; (curve of first compound, second compound 0.01 µM) above 3 µM; (curve of first compound, second compound 0.0316 µM) above 3 µM; (curve of first compound, second compound 0.1 µM) 0.834 µM; (curve of first compound, second compound 0.316 µM) 0.118 µM; (curve of first compound, second compound 1 µM) 0.032 µM. Moreover, the viability, T/C is, setting by setting: (second compound 0.00316 µM, first compound 0.00949 µM) 105%; (second compound 0.00316 µM, first compound 0.03 µM) 100%; (second compound 0.00316 µM, first compound 0.0949 µM) 117%; (second compound 0.00316 µM, first compound 0.3 µM) 116%; (second compound 0.00316 µM, first compound 0.949 µM) 114%; (second compound 0.00316 µM, first compound 3 µM) 95.3%. Also, the viability, T/C is 103% (second compound 0.01 µM, first compound 0.00949 µM); 105% (second compound 0.01 µM, first compound 0.03 µM); 114% (second compound 0.01 µM, first compound 0.0949 µM); 111% (second compound 0.01 µM, first compound 0.3 µM); 126% (second compound 0.01 µM, first compound 0.949 µM); 91.2% (second compound 0.01 µM, first compound 3 µM). Besides, the viability, T/C runs as follows: (second compound 0.0316 µM, first compound 0.00949 µM) 107%; (second compound 0.0316 µM, first compound 0.03 µM) 119%; (second compound 0.0316 µM, first compound 0.0949 µM) 120%; (second compound 0.0316 µM, first compound 0.3 µM) 100%; (second compound 0.0316 µM, first compound 0.949 µM) 97.1%; (second compound 0.0316 µM, first compound 3 µM) 62.7%. Also, the viability, T/C (second compound 0.1 µM, first compound 0.00949 µM) is 114%; the viability, T/C (second compound 0.1 µM, first compound 0.03 µM) was 116%; the viability, T/C (second compound 0.1 µM, first compound 0.0949 µM) is 104%; the viability, T/C (second compound 0.1 µM, first compound 0.3 µM) was 73.3%; the viability, T/C (second compound 0.1 µM, first compound 0.949 µM) is 49.5%; the viability, T/C (second compound 0.1 µM, first compound 3 µM) is 33%. For the same molecule, the viability, T/C is, setting by setting: (second compound 0.316 µM, first compound 0.00949 µM) 85.2%; (second compound 0.316 µM, first compound 0.03 µM) 73.1%; (second compound 0.316 µM, first compound 0.0949 µM) 52.7%; (second compound 0.316 µM, first compound 0.3 µM) 35.4%; (second compound 0.316 µM, first compound 0.949 µM) 26%; (second compound 0.316 µM, first compound 3 µM) 19.2%. The viability, T/C was 60.4% (second compound 1 µM, first compound 0.00949 µM); 50.7% (second compound 1 µM, first compound 0.03 µM); 36.9% (second compound 1 µM, first compound 0.0949 µM); 23.3% (second compound 1 µM, first compound 0.3 µM); 15.9% (second compound 1 µM, first compound 0.949 µM); 11.7% (second compound 1 µM, first compound 3 µM).
